# Values of other authors, collected in publication doi:10.1101/2025.05.01.651722v1 (bioRxiv, 2025).
# No end group written: not given here.
# Conditions: solubility maintained by hydrophilic arginine tail
substance,measurement,value
H-RLTRKRGLKLAGGGGGRRRRRRRRR [ApoB^11],hydrophobicity of the peptide,highly hydrophobic
